Reference: patent publication US11446301B2, “Quinoline analogs as phosphatidylinositol 3-kinase inhibitors” (NANJING ZHENGXIANG PHARMACEUTICALS CO., LTD., priority 2016, dated 2022)
Like-named read-outs stand apart in the source and are kept apart here.

Columns and labels:
human hepatocytes = experiment: Hepatocyte stability (parent disappearance in cryopreserved hepatocytes); format: in vitro ADME
Protocol: The hepatocyte assay was used to evaluate the metabolic stability of test articles (TA) following incubation in cryopreserved hepatocytes by monitoring parent drug disappearance via […]. The TA with 1% final DMSO concentration was incubated with 0.5 million hepatocytes/ml at 1 μM substrate in duplicate. The incubation was carried out at 37° C. with 5% CO2 and saturating humidity. Samples were taken at 0, 1, 2, and 3 hours to monitor the disappearance of TA and a half-life (t ½) was determined. Table 2 below summarizes the t½ values (e.g. t ½) collected from this Example.

[1] = PK profiles after iv and PO dosing in rats; format: in vivo; conditions: oral dose 10 mg/kg, SD rats, vs idelalisib
Protocol: Compound 2 was dosed by both iv and PO in the rats.

[2] = cited from earlier work
[3] = IV; data from idelalisib NDA filing; cited from earlier work

C[C@H](Nc1nc(N)nc(N)c1C#N)c1cc2ccc(F)cc2nc1-c1ccccc1 [Compound 1, (S)-2,4-diamino-6-[1-(7-fluoro-2-phenyl-quinolin-3-yl)-ethylamino]-pyrimidine-5-carbonitrile]
improved stability in human hepatocytes (longer half-life) than compound D (human hepatocytes; fold vs compound D): 2.7 ×

C[C@H](Nc1nc(N)nc(N)c1C#N)c1cc2ccc(F)cc2nc1-c1ccccn1 (stereo in doubt) [Compound 2, (S)-2,4-Diamino-6-[1-(7-fluoro-2-pyridin-2-yl-quinolin-3-yl)-ethyla-mino]-pyrimidine-5-carbonitrile]
Oral exposure corrected with dose (AUCinf/dose) higher than that of idelalisib [1]: 20 fold

CC[C@H](Nc1ncnc2[nH]cnc12)c1nc2cccc(F)c2c(=O)n1-c1ccccc1 [Idelalisib, idelalisib]
Fatal and/or serious hepatotoxicity, patients ([2]; idelalisib in combination trials): 11%
Fatal and/or serious hepatotoxicity, patients ([2]; idelalisib monotherapy): 18%
Tmax [3]: 3.6 min

C[C@H](Nc1nc(N)nc(N)c1C#N)c1cc2ccc(F)cc2nc1-c1ccccc1S(C)(=O)=O (stereo in doubt) [Compound 4, (S)-2,4-Diamino-6-{1-[7-fluoro-2-(2-methanesulfonyl-phenyl)-quinoli-n-3-yl]-ethylamino}-pyrimidine-5-carbonitrile]
improved stability in human hepatocytes (longer half-life) than compound E (human hepatocytes; fold vs compound E): 1.3 ×
